According to patent US20250215039A1, “NUCLEOSIDES FOR TREATING CANCER” (PRIMEFOUR THERAPEUTICS, INC., priority 2022, published 2025):
Where two headings read alike, the source gives them in different places.

Key:
[1] = tested on: cancer cell lines; test: Cancer cell proliferation activity (CellTiterGlo, 72 h); assay type: cell-based; conditions: 72 h, 72 h, read-out: IC50
Summary of the method: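 Readout is CellTiterGlo luminescence after 72 h compound exposure (0.1% DMSO final), started one day post-seeding, at 37 °C.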

[2] = biological target: human cytidine deaminase (CDA) (Homo sapiens, UniProt P32320); test: Metabolism by human cytidine deaminase (CDA), substrate absorbance at 290 nm
Sequence of human cytidine deaminase (CDA) (P32320 whole entry): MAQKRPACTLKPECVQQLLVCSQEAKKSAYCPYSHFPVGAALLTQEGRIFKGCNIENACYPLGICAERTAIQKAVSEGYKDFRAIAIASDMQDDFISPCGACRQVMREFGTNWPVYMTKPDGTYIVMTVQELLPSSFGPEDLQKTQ
Description: Transfer 7.2 μl of each of the substrate DMSO stock in step 2 into a 500 μl 96-Well V-bottom Microplate, clear SBS footprint, cat #P-96-450V-C
Add 352.8 μl assay buffer to the wells
For deaminated product compounds mix 4 μl product with 196 μl assay buffer
This was incubated at 37° C. for 1 h. 200 μl of this mixture was transferred into the assay plate to serve as the product control.
Product+buffer: mix 80 ul of the 2.5× intermediate product stocks (from step 3) with 120 ul assay buffer into product control (no enzyme) wells
Incubate the plate alongside the 20 nM CDA enzyme intermediate stock at 37° C. to temperature equilibrate reagents
Add 120 μl of the 20 nM enzyme mix into the Substrate+CDA wells and start reading at 290 nm every 30 s for about 60 min
50 and 200 uM substrate and product
In 100 mM Tris, pH 7.5, 100 mM KCl, 0.8% carryover DMSO
5 min incubation at 37° C.
Absorbance at 290 nm every 30 s at 37° C. for 1 h using FlexStation 3
Convert A290 to concentration of substrate remaining at time t after enzyme addition:
[formula] • where: • St=absorbance reading of: substrate+CDA wells at time t • So=Average absorbance reading of: substrate+buffer wells • Po=Average absorbance reading of: product+buffer wells • [S]t=initial substrate concentration • Use GraphPad to plot [substrate] against time to calculate initial velocity or slope (μMs^−1) i.e. the linear range of each curve • Express rate in s^−1 by dividing initial velocity by the total enzyme concentration.
Plot rate against [substrate] and fit data to standard Michaelis Menten equation to obtain kcat and KM parameters.

IC50 ([1]; 5637 cell line (bladder)): > 50 µM | IC50 ([1]; CLS439 cell line (bladder)): > 50 µM | IC50 ([1]; HS729 cell line (muscle)): > 50 µM | IC50 ([1]; JAR cell line (placenta)): > 50 µM | IC50 ([1]; U20S cell line, bone): > 50 µM | IC50 ([1]; Homo sapiens, 22Rv1, 72 h, 22RV1 cell line (prostate)): > 50 µM | IC50 ([1]; Homo sapiens, 786-0, 72 h, 786O cell line (kidney)): > 50 µM | IC50 ([1]; Homo sapiens, A204, 72 h, A204 cell line (muscle)): 7.27 µM | IC50 ([1]; Homo sapiens, A549, 72 h, A549 cell line, lung): > 50 µM | IC50 ([1]; Homo sapiens, A673, 72 h, A673 cell line (bone)): > 50 µM | IC50 ([1]; Homo sapiens, A2780, 72 h, A2780 cell line (ovary)): > 50 µM | IC50 ([1]; Homo sapiens, A-375, 72 h, A375 cell line (skin)): > 50 µM | IC50 ([1]; Homo sapiens, A-431, 72 h, A431 cell line (skin)): > 50 µM | IC50 ([1]; Homo sapiens, ACHN, ACHN cell line (kidney)): > 50 µM | IC50 ([1]; Homo sapiens, ASPC1, 72 h, ASPC1 cell line (pancreas)): > 50 µM | IC50 ([1]; Homo sapiens, BT-20, 72 h, BT20 cell line (breast)): > 50 µM | IC50 ([1]; Homo sapiens, BXPC-3, 72 h, BXPC3 cell line (pancreas)): > 50 µM | IC50 ([1]; Homo sapiens, C-33-A, C33A cell line, endometrial): > 50 µM | IC50 ([1]; Homo sapiens, CAKI-1, 72 h, CAKI1 cell line (kidney)): > 50 µM | IC50 ([1]; Homo sapiens, COLO 205, 72 h, COLO205 cell line (colon)): > 50 µM | IC50 ([1]; Homo sapiens, COLO-678, 72 h, COLO678 cell line (colon)): > 50 µM | IC50 ([1]; Homo sapiens, Ca-Ski, CASKI cell line, endometrial): > 50 µM | IC50 ([1]; Homo sapiens, Caco-2, 72 h, CACO2 cell line (colon)): > 50 µM | IC50 ([1]; Homo sapiens, Calu-6, 72 h, CALU6 cell line (lung)): > 50 µM | IC50 ([1]; Homo sapiens, DLD-1, 72 h, DLD1 cell line (colon)): > 50 µM | IC50 ([1]; Homo sapiens, DU-145, 72 h, DU145 cell line (prostate)): > 50 µM | IC50 ([1]; Homo sapiens, EFO-21, 72 h, EFO21 cell line (ovary)): > 50 µM | IC50 ([1]; Homo sapiens, EJ-28, 72 h, EJ28 cell line (bladder)): > 50 µM | IC50 ([1]; Homo sapiens, Granta-519, 72 h, GRANTA-519 cell line (hematological)): 0.46 µM | IC50 ([1]; Homo sapiens, HCT-15, 72 h, HCT15 cell line (colon)): > 50 µM | IC50 ([1]; Homo sapiens, HCT-116, 72 h, HCT116 cell line (colon)): > 50 µM | IC50 ([1]; Homo sapiens, HEK293, 72 h, HEK293 cell line (kidney)): > 50 µM | IC50 ([1]; Homo sapiens, HL-60, 72 h, HL-60 cell line (hematological)): > 50 µM | IC50 ([1]; Homo sapiens, HT-29, 72 h, HT29 cell line (colon)): > 50 µM | IC50 ([1]; Homo sapiens, HT-1080, 72 h, HT1080 cell line (connective tissue)): > 50 µM | IC50 ([1]; Homo sapiens, HeLa, HELA cell line, endometrial): > 50 µM | IC50 ([1]; Homo sapiens, HepG2, 72 h, HEPG2 cell line (liver)): > 50 µM | IC50 ([1]; Homo sapiens, Hs-578T, HS578T cell line, breast): > 50 µM | IC50 ([1]; Homo sapiens, IGROV-1, 72 h, IGROV1 cell line (ovary)): > 50 µM | IC50 ([1]; Homo sapiens, IMR-90, 72 h, IMR90 cell line, lung): > 50 µM | IC50 ([1]; Homo sapiens, J82, 72 h, J82 cell line (bladder)): > 50 µM | IC50 ([1]; Homo sapiens, JEG-3, 72 h, JEG3 cell line (placenta)): > 50 µM | IC50 ([1]; Homo sapiens, JIMT-1, 72 h, JIMT1 cell line (breast)): > 50 µM | IC50 ([1]; Homo sapiens, K562, 72 h, K-562 cell line (hematological)): > 50 µM | IC50 ([1]; Homo sapiens, Kasumi 1, 72 h, KASUMI-1 cell line (hematological)): > 50 µM | IC50 ([1]; Homo sapiens, L-363, 72 h, L-363 cell line (hematological)): > 50 µM | IC50 ([1]; Homo sapiens, LoVo, LOVO cell line (colon)): > 50 µM | IC50 ([1]; Homo sapiens, MCF7, 72 h, MCF7 cell line (breast)): > 50 µM | IC50 ([1]; Homo sapiens, MDA-MB-231, 72 h, MDAMB231 cell line (breast)): > 50 µM | IC50 ([1]; Homo sapiens, MDA-MB-435, 72 h, MDAMB435 cell line (skin)): > 50 µM | IC50 ([1]; Homo sapiens, MDA-MB-436, 72 h, MDAMB436 cell line (breast)): > 50 µM | IC50 ([1]; Homo sapiens, MDA-MB-468, 72 h, MDAMB468 cell line (breast)): > 50 µM | IC50 ([1]; Homo sapiens, MG-63, 72 h, MG63 cell line (bone)): > 50 µM | IC50 ([1]; Homo sapiens, MHH-ES-1, 72 h, MHHES1 cell line (bone)): > 50 µM | IC50 ([1]; Homo sapiens, MIA PaCa-2, 72 h, MIAPACA2 cell line (pancreas)): > 50 µM | IC50 ([1]; Homo sapiens, MINO, MINO cell line (hematological)): 0.68 µM | IC50 ([1]; Homo sapiens, MV4-11, 72 h, MV4-11 cell line (hematological)): > 50 µM | IC50 ([1]; Homo sapiens, NCI-H23, 72 h, NCI-H23 cell line (lung)): > 50 µM | IC50 ([1]; Homo sapiens, NCI-H82, 72 h, NCIH82 cell line (lung)): > 50 µM | IC50 ([1]; Homo sapiens, NCI-H292, 72 h, NCIH292 cell line (lung)): > 50 µM | IC50 ([1]; Homo sapiens, NCI-H460, 72 h, NCIH460 cell line (lung)): > 50 µM | IC50 ([1]; Homo sapiens, OVCAR-3, 72 h, OVCAR3 cell line (ovary)): > 50 µM | IC50 ([1]; Homo sapiens, OVCAR-4, 72 h, OVCAR4 cell line (ovary)): > 50 µM | IC50 ([1]; Homo sapiens, PANC-1, 72 h, PANC1 cell line (pancreas)): > 50 µM | IC50 ([1]; Homo sapiens, PC-3, 72 h, PC3 cell line (prostate)): > 50 µM | IC50 ([1]; Homo sapiens, PLC-PRF-5, 72 h, PLCPRF5 cell line (liver)): > 50 µM | IC50 ([1]; Homo sapiens, Panc1005, 72 h, PANC1005 cell line (pancreas)): > 50 µM | IC50 ([1]; Homo sapiens, RD, RD cell line (muscle)): > 50 µM | IC50 ([1]; Homo sapiens, Ramos, RAMOS cell line (hematological)): 8.68 µM | IC50 ([1]; Homo sapiens, SAOS-2, 72 h, SAOS2 cell line (bone)): 2.05 µM | IC50 ([1]; Homo sapiens, SF-268, 72 h, SF268 cell line (brain)): > 50 µM | IC50 ([1]; Homo sapiens, SF-295, 72 h, SF295 cell line (brain)): > 50 µM | IC50 ([1]; Homo sapiens, SK-BR-3, 72 h, SKBR3 cell line (breast)): > 50 µM | IC50 ([1]; Homo sapiens, SK-HEP1, 72 h, SKHEP1 cell line (liver)): > 50 µM | IC50 ([1]; Homo sapiens, SK-LMS-1, 72 h, SKLMS1 cell line (uterus)): > 50 µM | IC50 ([1]; Homo sapiens, SK-MEL-5, 72 h, SKMEL5 cell line, skin): > 50 µM | IC50 ([1]; Homo sapiens, SK-MEL-28, 72 h, SKMEL28 cell line (skin)): > 50 µM | IC50 ([1]; Homo sapiens, SK-N-AS, SKNAS cell line (brain)): > 50 µM | IC50 ([1]; Homo sapiens, SK-N-SH, SKNSH cell line (brain)): > 50 µM | IC50 ([1]; Homo sapiens, SK-OV-3, 72 h, SKOV3 cell line (ovary)): > 50 µM | IC50 ([1]; Homo sapiens, SNB-75, 72 h, SNB75 cell line (brain)): > 50 µM | IC50 ([1]; Homo sapiens, SU-DHL10, 72 h, SU-DHL-10 cell line (hematological)): 2.55 µM | IC50 ([1]; Homo sapiens, SU-DHL-6, 72 h, SU-DHL-6 cell line (hematological)): > 50 µM | IC50 ([1]; Homo sapiens, SW-620, 72 h, SW620 cell line (colon)): > 50 µM | IC50 ([1]; Homo sapiens, T-24, 72 h, T24 cell line (bladder)): > 50 µM | IC50 ([1]; Homo sapiens, TE-671, 72 h, TE671 cell line (muscle)): > 50 µM | IC50 ([1]; Homo sapiens, THP-1, 72 h, THP-1 cell line (hematological)): > 50 µM | IC50 ([1]; Homo sapiens, U-87 MG, U87MG cell line (brain)): > 50 µM | IC50 ([1]; Homo sapiens, UMUC3, 72 h, UMUC3 cell line (bladder)): > 50 µM | IC50 ([1]; Homo sapiens, UO-31, 72 h, UO31 cell line (kidney)): > 50 µM | IC50 ([1]; Homo sapiens, WSU-NHL, WSU-NHL cell line (hematological)): 2.32 µM | IC50 ([1]; MT-3, 72 h, MT3 cell line (breast)): > 50 µM | IC50 ([1]; NCI-H358M, NCIH358M cell line (lung)): > 50 µM | IC50 ([1]; PBMC, PBMC (hematological)): > 50 µM | IC50 ([1]; RD-ES, RDES cell line (bone)): > 50 µM | metabolism (deamination) by human CDA (line graph) ([2]; 12 nM CDA, 50 and 200 uM substrate, 37° C., pH 7.5, figure legends FIG. 4-9): not metabolized | substrate conversion by CDA (Inactive) ([2]; rate of substrate conversion at 200 μM, could not be fitted): Inactive
Compound: N#C[C@]1(CO)O[C@@H](n2cc(F)c(N)nc2=O)C[C@@H]1O [Cpd. No. 6, (2R,3S,5R)-5-(4-amino-5-fluoro-2-oxopyrimidin-1(2H)-yl)-3-hydroxy-2-(hydroxymethyl)tetrahydrofuran-2-carbonitrile]
